Source: the kinase profiling compilation of Christmann-Franck et al. (2016)

Tests used:
Assay in all cases: KINOMEscan competition binding
Conditions in all cases: compound 10.0 µM
DAPK1 (human) = DAPK1 (human) (UniProt P53355)
MAP3K3 (human) = MAP3K3 (human) (UniProt Q99759)
IKBKB (human) = IKBKB (human) (UniProt O14920)
IGF1R (human) = IGF1R (human) (UniProt P08069)
KIT (human) = KIT (human) (UniProt P10721)
STK38 (human) = STK38 (human) (UniProt Q15208)
[1] = tested on: FLT3 (human), P36888 [R834Q]
STK16 (human) = STK16 (human) (UniProt O75716)
RIOK1 (human) = RIOK1 (human) (UniProt Q9BRS2)
CDC42BPA (human) = CDC42BPA (human) (UniProt Q5VT25)
MAP3K5 (human) = MAP3K5 (human) (UniProt Q99683)
FGFR3 (human) = FGFR3 (human) (UniProt P22607)
FYN (human) = FYN (human) (UniProt P06241)
MAP4K1 (human) = MAP4K1 (human) (UniProt Q92918)
AKT2 (human) = AKT2 (human) (UniProt P31751)
[2] = tested on: PIK3CA (human), P42336 [E542K]
FGFR2 (human) = FGFR2 (human) (UniProt P21802)
CAMK4 (human) = CAMK4 (human) (UniProt Q16566)
NEK2 (human) = NEK2 (human) (UniProt P51955)
ICK (human) = ICK (human) (UniProt Q9UPZ9)
PI4KB (human) = PI4KB (human) (UniProt Q9UBF8)
PRKD3 (human) = PRKD3 (human) (UniProt O94806)
CHUK (human) = CHUK (human) (UniProt O15111)
STK36 (human) = STK36 (human) (UniProt Q9NRP7)
[3] = tested on: FLT3 (human), P36888 [K663Q]
[4] = tested on: EGFR (human), P00533 [T790M/L858R]
EPHB6 (human) = EPHB6 (human) (UniProt O15197)
LIMK1 (human) = LIMK1 (human) (UniProt P53667)
PRKG1 (human) = PRKG1 (human) (UniProt Q13976)
CSNK1D (human) = CSNK1D (human) (UniProt P48730)
NUAK2 (human) = NUAK2 (human) (UniProt Q9H093)
PDGFRA (human) = PDGFRA (human) (UniProt P16234)
PHKG2 (human) = PHKG2 (human) (UniProt P15735)
STK11 (human) = STK11 (human) (UniProt Q15831)
DYRK2 (human) = DYRK2 (human) (UniProt Q92630)
AAK1 (human) = AAK1 (human) (UniProt Q2M2I8)
PRKCD (human) = PRKCD (human) (UniProt Q05655)
SRMS (human) = SRMS (human) (UniProt Q9H3Y6)
TIE1 (human) = TIE1 (human) (UniProt P35590)
MAPK13 (human) = MAPK13 (human) (UniProt O15264)
MARK4 (human) = MARK4 (human) (UniProt Q96L34)

TIE1 (human), sequence (P35590 whole entry, looked up): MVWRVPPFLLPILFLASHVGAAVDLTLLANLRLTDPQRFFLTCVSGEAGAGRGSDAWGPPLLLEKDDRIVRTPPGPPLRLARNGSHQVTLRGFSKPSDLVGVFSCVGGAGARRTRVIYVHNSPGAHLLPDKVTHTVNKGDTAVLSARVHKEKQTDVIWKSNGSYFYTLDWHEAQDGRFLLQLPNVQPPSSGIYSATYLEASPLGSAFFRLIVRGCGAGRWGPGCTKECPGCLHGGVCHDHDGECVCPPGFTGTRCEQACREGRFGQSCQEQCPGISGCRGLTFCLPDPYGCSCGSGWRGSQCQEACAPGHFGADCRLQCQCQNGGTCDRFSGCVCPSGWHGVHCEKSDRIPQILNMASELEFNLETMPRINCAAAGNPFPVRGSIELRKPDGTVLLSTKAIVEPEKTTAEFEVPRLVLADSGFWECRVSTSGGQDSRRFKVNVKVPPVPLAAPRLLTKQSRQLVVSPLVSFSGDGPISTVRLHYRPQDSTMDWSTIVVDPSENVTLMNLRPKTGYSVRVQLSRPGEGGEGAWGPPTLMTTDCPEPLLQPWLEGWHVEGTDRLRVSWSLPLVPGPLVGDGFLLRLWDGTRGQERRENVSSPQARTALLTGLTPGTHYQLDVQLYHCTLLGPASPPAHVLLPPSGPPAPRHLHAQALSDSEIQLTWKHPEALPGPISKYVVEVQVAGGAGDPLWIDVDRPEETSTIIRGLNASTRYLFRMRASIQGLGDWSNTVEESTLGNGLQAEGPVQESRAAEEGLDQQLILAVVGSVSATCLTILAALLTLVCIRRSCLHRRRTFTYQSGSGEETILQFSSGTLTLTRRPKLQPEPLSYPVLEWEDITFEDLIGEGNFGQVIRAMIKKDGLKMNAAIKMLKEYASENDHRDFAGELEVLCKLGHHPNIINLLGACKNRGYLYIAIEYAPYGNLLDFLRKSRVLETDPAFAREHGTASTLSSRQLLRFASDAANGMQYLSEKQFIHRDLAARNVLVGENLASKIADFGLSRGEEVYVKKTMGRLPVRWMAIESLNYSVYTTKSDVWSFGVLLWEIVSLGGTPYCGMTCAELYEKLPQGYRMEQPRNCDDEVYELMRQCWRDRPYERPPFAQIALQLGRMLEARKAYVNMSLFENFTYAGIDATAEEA
RIOK1 (human), sequence (Q9BRS2 whole entry, looked up): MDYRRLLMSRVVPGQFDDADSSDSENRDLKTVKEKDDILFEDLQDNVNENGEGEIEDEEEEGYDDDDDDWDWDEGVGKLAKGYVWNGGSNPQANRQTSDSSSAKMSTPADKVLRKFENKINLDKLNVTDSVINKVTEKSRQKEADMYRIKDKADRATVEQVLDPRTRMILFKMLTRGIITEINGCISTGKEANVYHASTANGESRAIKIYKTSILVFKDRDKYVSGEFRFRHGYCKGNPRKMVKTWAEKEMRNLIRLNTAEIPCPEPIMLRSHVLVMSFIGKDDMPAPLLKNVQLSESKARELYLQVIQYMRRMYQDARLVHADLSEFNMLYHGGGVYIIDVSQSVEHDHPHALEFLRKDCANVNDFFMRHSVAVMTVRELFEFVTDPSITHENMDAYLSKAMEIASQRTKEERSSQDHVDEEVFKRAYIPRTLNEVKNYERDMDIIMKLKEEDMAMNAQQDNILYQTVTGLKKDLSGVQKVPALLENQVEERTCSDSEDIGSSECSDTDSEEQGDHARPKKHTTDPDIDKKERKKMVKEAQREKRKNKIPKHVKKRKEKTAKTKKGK
MAPK13 (human), sequence (O15264 whole entry, looked up): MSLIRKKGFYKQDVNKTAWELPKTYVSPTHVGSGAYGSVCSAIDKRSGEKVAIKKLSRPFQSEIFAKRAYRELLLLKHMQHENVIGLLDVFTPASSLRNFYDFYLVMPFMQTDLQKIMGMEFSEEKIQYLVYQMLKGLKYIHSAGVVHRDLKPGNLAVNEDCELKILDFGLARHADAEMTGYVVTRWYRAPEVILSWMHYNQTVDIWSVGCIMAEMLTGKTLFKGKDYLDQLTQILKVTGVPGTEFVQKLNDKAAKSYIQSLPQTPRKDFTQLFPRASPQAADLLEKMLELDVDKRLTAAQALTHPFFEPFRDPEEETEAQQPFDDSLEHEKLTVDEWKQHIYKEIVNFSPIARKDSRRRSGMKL
CHUK (human), sequence (O15111 whole entry, looked up): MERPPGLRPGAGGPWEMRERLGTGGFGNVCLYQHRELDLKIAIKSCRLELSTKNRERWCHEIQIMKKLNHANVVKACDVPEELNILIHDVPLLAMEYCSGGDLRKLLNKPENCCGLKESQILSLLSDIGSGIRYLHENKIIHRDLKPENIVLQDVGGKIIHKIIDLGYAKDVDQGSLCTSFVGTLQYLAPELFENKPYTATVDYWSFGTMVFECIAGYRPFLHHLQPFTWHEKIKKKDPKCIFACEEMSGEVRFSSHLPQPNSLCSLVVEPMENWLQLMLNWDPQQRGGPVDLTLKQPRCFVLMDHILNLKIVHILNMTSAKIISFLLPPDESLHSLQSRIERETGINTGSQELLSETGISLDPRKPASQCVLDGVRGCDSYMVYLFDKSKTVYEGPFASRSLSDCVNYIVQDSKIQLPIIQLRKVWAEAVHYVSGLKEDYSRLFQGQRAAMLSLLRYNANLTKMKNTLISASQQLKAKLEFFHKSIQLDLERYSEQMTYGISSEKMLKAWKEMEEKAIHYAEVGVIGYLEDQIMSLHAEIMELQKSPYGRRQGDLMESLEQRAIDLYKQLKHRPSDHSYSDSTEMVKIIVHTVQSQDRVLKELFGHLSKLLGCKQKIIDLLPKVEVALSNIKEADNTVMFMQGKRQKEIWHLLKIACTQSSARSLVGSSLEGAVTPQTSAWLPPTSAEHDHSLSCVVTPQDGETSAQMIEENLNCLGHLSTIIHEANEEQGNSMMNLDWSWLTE
PRKCD (human), sequence (Q05655 whole entry, looked up): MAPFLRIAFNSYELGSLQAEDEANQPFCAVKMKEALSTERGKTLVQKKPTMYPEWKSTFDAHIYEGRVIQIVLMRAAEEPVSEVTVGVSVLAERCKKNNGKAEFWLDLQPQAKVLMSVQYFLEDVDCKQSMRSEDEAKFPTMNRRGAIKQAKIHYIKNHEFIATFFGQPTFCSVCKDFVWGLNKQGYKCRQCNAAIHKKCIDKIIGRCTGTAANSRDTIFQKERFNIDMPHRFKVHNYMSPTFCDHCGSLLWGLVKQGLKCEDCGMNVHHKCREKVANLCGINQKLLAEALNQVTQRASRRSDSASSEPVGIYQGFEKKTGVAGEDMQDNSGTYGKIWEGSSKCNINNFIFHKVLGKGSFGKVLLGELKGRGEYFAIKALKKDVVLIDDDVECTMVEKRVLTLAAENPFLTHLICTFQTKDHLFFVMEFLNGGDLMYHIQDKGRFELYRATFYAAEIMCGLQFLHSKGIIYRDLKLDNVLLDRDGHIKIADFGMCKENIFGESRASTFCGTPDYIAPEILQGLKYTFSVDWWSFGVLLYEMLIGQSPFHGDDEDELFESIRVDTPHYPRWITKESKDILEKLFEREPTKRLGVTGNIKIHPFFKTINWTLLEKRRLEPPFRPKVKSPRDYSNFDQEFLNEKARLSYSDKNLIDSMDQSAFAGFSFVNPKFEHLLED
CAMK4 (human), sequence (Q16566 whole entry, looked up): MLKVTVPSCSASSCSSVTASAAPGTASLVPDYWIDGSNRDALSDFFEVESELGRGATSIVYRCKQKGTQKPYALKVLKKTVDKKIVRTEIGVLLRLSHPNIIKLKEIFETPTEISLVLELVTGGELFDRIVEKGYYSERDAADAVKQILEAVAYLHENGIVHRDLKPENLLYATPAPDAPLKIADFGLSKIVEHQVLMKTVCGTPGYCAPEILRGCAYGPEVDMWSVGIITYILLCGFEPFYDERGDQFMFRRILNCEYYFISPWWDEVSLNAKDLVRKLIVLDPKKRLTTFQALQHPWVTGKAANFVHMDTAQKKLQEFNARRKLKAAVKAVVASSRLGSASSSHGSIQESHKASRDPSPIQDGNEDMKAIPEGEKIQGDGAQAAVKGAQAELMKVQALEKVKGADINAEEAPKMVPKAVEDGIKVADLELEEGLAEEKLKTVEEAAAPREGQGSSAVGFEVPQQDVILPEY
DYRK2 (human), sequence (Q92630 whole entry, looked up): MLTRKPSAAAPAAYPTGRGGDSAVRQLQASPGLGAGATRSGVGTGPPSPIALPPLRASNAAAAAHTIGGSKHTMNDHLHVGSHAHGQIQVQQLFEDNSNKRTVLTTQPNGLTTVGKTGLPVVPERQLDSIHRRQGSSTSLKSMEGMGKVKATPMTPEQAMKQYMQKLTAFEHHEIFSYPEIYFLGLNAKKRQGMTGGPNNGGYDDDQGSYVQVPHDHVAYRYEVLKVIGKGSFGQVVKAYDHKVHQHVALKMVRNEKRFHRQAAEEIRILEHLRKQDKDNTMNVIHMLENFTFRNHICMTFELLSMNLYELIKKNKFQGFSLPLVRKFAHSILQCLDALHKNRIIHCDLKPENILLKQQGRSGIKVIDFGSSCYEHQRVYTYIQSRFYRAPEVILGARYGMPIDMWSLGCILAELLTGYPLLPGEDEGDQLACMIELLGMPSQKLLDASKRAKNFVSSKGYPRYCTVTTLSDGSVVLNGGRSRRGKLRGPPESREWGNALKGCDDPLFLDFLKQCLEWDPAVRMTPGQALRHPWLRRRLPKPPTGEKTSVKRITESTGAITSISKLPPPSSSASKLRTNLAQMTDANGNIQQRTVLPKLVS
AKT2 (human), sequence (P31751 whole entry, looked up): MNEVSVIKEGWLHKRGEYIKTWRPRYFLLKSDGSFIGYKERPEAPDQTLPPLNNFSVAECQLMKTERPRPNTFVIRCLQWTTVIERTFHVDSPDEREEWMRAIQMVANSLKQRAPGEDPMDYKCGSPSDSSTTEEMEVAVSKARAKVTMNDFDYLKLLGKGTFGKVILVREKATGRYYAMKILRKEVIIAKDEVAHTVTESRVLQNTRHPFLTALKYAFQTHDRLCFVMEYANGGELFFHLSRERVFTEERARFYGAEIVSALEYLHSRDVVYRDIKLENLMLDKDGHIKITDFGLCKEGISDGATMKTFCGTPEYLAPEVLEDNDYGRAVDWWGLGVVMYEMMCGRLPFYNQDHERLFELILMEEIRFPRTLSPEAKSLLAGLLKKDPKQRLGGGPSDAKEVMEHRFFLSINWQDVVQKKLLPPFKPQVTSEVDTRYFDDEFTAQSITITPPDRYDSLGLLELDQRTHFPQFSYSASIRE

`COc1ccc(-c2ccc3c(N4CCOCC4)nc(N4C[C@@H](C)O[C@@H](C)C4)nc3n2)cc1CO` was tested, and the kinase still bound, per cent of control (DAPK1 (human)) was 95%, the kinase still bound, per cent of control (MAP3K3 (human)) was 76% and the kinase still bound, per cent of control (IKBKB (human)) was 100%. It also gave a per cent of control (IGF1R (human)) of 100%, a kinase still bound, per cent of control (KIT (human)) of 87% and a kinase still bound, per cent of control (STK38 (human)) of 55%. For the same compound, the kinase still bound, per cent of control [1] was 100%, the kinase still bound, per cent of control (STK16 (human)) was 93% and the kinase still bound, per cent of control (RIOK1 (human)) was 51%. For the same compound, the kinase still bound, per cent of control (CDC42BPA (human)) was 92%, the kinase still bound, per cent of control (MAP3K5 (human)) was 97% and the kinase still bound, per cent of control (FGFR3 (human)) was 100%. It also gave a kinase still bound, per cent of control (FYN (human)) of 96%, a kinase still bound, per cent of control (MAP4K1 (human)) of 88% and a kinase still bound, per cent of control (AKT2 (human)) of 83%. The kinase still bound, per cent of control [2] was 2.8%, the kinase still bound, per cent of control (FGFR2 (human)) was 99% and the kinase still bound, per cent of control (CAMK4 (human)) was 100%. For the same compound, the kinase still bound, per cent of control (NEK2 (human)) was 100%, the kinase still bound, per cent of control (ICK (human)) was 100% and the kinase still bound, per cent of control (PI4KB (human)) was 100%. It also gave a kinase still bound, per cent of control (PRKD3 (human)) of 85%, a kinase still bound, per cent of control (CHUK (human)) of 72% and a kinase still bound, per cent of control (STK36 (human)) of 92%. For the same compound, the kinase still bound, per cent of control [3] was 96%, the kinase still bound, per cent of control [4] was 100% and the kinase still bound, per cent of control (EPHB6 (human)) was 83%. For the same compound, the kinase still bound, per cent of control (LIMK1 (human)) was 100%, the kinase still bound, per cent of control (PRKG1 (human)) was 91% and the per cent of control (CSNK1D (human)) was 79%. The kinase still bound, per cent of control (NUAK2 (human)) was 100%, the kinase still bound, per cent of control (PDGFRA (human)) was 94% and the kinase still bound, per cent of control (PHKG2 (human)) was 77%. For the same compound, the kinase still bound, per cent of control (STK11 (human)) was 95%, the kinase still bound, per cent of control (DYRK2 (human)) was 63% and the kinase still bound, per cent of control (AAK1 (human)) was 93%. The kinase still bound, per cent of control (PRKCD (human)) was 100%, the kinase still bound, per cent of control (SRMS (human)) was 98% and the kinase still bound, per cent of control (TIE1 (human)) was 100%. The kinase still bound, per cent of control (MAPK13 (human)) was 71% and the kinase still bound, per cent of control (MARK4 (human)) was 84%.

Work on `CCC(=O)N1CCN(c2ccc(-n3c(=O)ccc4cnc5ccc(-c6cnc7ccccc7c6)cc5c43)cc2C(F)(F)F)CC1` yielded a kinase still bound, per cent of control (DAPK1 (human)) of 96%, a kinase still bound, per cent of control (MAP3K3 (human)) of 75% and a kinase still bound, per cent of control (IKBKB (human)) of 61%. It also gave a per cent of control (IGF1R (human)) of 94%, a kinase still bound, per cent of control (STK38 (human)) of 100% and a kinase still bound, per cent of control (STK16 (human)) of 18%. It also gave a kinase still bound, per cent of control (RIOK1 (human)) of 81%, a kinase still bound, per cent of control (CDC42BPA (human)) of 0.65% and a kinase still bound, per cent of control (MAP3K5 (human)) of 100%. It also gave a kinase still bound, per cent of control (FGFR3 (human)) of 42%, a kinase still bound, per cent of control (FYN (human)) of 49% and a kinase still bound, per cent of control (MAP4K1 (human)) of 30%. It also gave a kinase still bound, per cent of control (AKT2 (human)) of 100%, a kinase still bound, per cent of control [2] of 1% and a kinase still bound, per cent of control (FGFR2 (human)) of 55%. It also gave a kinase still bound, per cent of control (CAMK4 (human)) of 90%, a kinase still bound, per cent of control (NEK2 (human)) of 90% and a kinase still bound, per cent of control (ICK (human)) of 100%. For the same compound, the kinase still bound, per cent of control (PI4KB (human)) was 96%, the kinase still bound, per cent of control (PRKD3 (human)) was 100% and the kinase still bound, per cent of control (CHUK (human)) was 41%. For the same compound, the kinase still bound, per cent of control (STK36 (human)) was 17%, the kinase still bound, per cent of control [3] was 23% and the kinase still bound, per cent of control [4] was 100%. The kinase still bound, per cent of control (EPHB6 (human)) was 80%, the kinase still bound, per cent of control (LIMK1 (human)) was 15% and the kinase still bound, per cent of control (PRKG1 (human)) was 86%. For the same compound, the per cent of control (CSNK1D (human)) was 4.3%, the kinase still bound, per cent of control (NUAK2 (human)) was 100% and the kinase still bound, per cent of control (PDGFRA (human)) was 63%. The kinase still bound, per cent of control (PHKG2 (human)) was 100%, the kinase still bound, per cent of control (STK11 (human)) was 100% and the kinase still bound, per cent of control (DYRK2 (human)) was 86%. It also gave a kinase still bound, per cent of control (AAK1 (human)) of 75%, a kinase still bound, per cent of control (PRKCD (human)) of 82% and a kinase still bound, per cent of control (SRMS (human)) of 92%. For the same compound, the kinase still bound, per cent of control (TIE1 (human)) was 100%, the kinase still bound, per cent of control (MAPK13 (human)) was 39% and the kinase still bound, per cent of control (MARK4 (human)) was 100%.

With `CC(C)n1nc(-c2cc3cc(O)ccc3[nH]2)c2c(N)ncnc21` the kinase still bound, per cent of control (DAPK1 (human)) was 3%, the kinase still bound, per cent of control (MAP3K3 (human)) was 3.2% and the kinase still bound, per cent of control (IKBKB (human)) was 84%. It also gave a per cent of control (IGF1R (human)) of 100%, a kinase still bound, per cent of control (KIT (human)) of 0.8% and a kinase still bound, per cent of control (STK38 (human)) of 60%. It also gave a kinase still bound, per cent of control [1] of 16%, a kinase still bound, per cent of control (STK16 (human)) of 34% and a kinase still bound, per cent of control (RIOK1 (human)) of 100%. The kinase still bound, per cent of control (CDC42BPA (human)) was 74%, the kinase still bound, per cent of control (MAP3K5 (human)) was 100% and the kinase still bound, per cent of control (FGFR3 (human)) was 9.2%. It also gave a kinase still bound, per cent of control (FYN (human)) of 4.6%, a kinase still bound, per cent of control (MAP4K1 (human)) of 33% and a kinase still bound, per cent of control (AKT2 (human)) of 100%. For the same compound, the kinase still bound, per cent of control (FGFR2 (human)) was 5.8%, the kinase still bound, per cent of control (CAMK4 (human)) was 100% and the kinase still bound, per cent of control (NEK2 (human)) was 75%. The kinase still bound, per cent of control (ICK (human)) was 58%, the kinase still bound, per cent of control (PI4KB (human)) was 2.4% and the kinase still bound, per cent of control (PRKD3 (human)) was 94%. For the same compound, the kinase still bound, per cent of control (CHUK (human)) was 41%, the kinase still bound, per cent of control (STK36 (human)) was 100% and the kinase still bound, per cent of control [3] was 27%. For the same compound, the kinase still bound, per cent of control (EPHB6 (human)) was 5.3%, the kinase still bound, per cent of control (LIMK1 (human)) was 73% and the kinase still bound, per cent of control (PRKG1 (human)) was 100%. It also gave a per cent of control (CSNK1D (human)) of 2.4%, a kinase still bound, per cent of control (NUAK2 (human)) of 9.2% and a kinase still bound, per cent of control (PDGFRA (human)) of 2.2%. For the same compound, the kinase still bound, per cent of control (PHKG2 (human)) was 12%, the kinase still bound, per cent of control (STK11 (human)) was 79% and the kinase still bound, per cent of control (DYRK2 (human)) was 1.4%. The kinase still bound, per cent of control (AAK1 (human)) was 31%, the kinase still bound, per cent of control (PRKCD (human)) was 39% and the kinase still bound, per cent of control (SRMS (human)) was 61%. For the same compound, the kinase still bound, per cent of control (TIE1 (human)) was 49%, the kinase still bound, per cent of control (MAPK13 (human)) was 97% and the kinase still bound, per cent of control (MARK4 (human)) was 82%.
